Assay results reported in ChEMBL document CHEMBL6182910, “Design, Synthesis, and Biological Evaluation of 4-(Difluoromethyl)-1H-imidazole-5-carboxylic Acids/4-(3-Cyanophenoxy)pyrimidine-5-carboxylic Acids as P2Y1 Receptor Antagonists for Ischemic Stroke Treatment” (J Med Chem, 2025).
The source made the active and inactive calls. No cut-off for these calls is given here.

Legend:
[1] = tested on: HT-22; assay: Neuroprotective activity against H2O2-induced oxidative stress in mouse HT-22 cells assessed as cell viability at 10 uM preincubated for 2 hrs followed by H2O2 addition measured after 24 hrs by MTT assay (reference value: 55 +/- 4.6 %); type: functional; details: for Activity: time 26.0 hrs; for viability at 10 µM: time 26 hrs, read-out: Activity
[2] = tested on: Plasma; assay: Anti-platelet aggregation in platelet-rich plasma of male Japanese white rabbit assessed as inhibition of ADP-induced platelet aggregation preincubated for 15 mins followed by ADP addition measured up to 10 mins by Born's turbidometric method; type: functional, cell-free; details: Oryctolagus cuniculus

| SMILES | IC50 [2] | Activity [1] | viability at 10 µM [1] |
| --- | --- | --- | --- |
| N#Cc1ccc(COn2c(-c3cccc(C#N)c3)nc(-c3ccoc3)c2C(=O)O)cc1 | 7.61 µM | inactive | – |
| CC(=O)Nc1cccc(Oc2nc(-c3cccc(C#N)c3)ncc2C(=O)O)c1 | 7.99 µM | – | 88.2% |
| N#Cc1cccc(-c2nc(C(F)F)c(C(=O)O)n2OCc2cccnc2)c1 | > 10 µM | inactive | – |
| N#Cc1cccc(Nc2nc(-c3cccc(C#N)c3)ncc2C(=O)O)c1 | 7.79 µM | inactive | – |
| N#Cc1cccc(-c2nc(C(F)F)c(C(=O)O)n2OCc2csc(N3CCOCC3)n2)c1 | 4.7 µM | inactive | – |
| N#Cc1ccc(COn2c(-c3cccc(C#N)c3)nc(-c3ccco3)c2C(=O)O)cc1 | > 10 µM | – | 77.1% |
| CC(C)Cc1nc(-c2cccc(C#N)c2)n(OCc2ccc(C#N)cc2)c1C(=O)O | 2.08 µM | – | 76.1% |
| N#Cc1cccc(-c2ncc(C(=O)O)c(Nc3ccccc3C#N)n2)c1 | > 10 µM | – | 81% |
| N#Cc1cccc(-c2nc(C(F)F)c(C(=O)O)n2OCc2cscn2)c1 | 1.98 µM | – | 86.8% |
| CN(C)c1nc(COn2c(-c3cccc(C#N)c3)nc(C(F)F)c2C(=O)O)cs1 | 3.71 µM | – | 62.4% |
| N#Cc1cccc(-c2nc(C(F)F)c(C(=O)O)n2OCc2ccncc2)c1 | 5.34 µM | inactive | – |
| N#Cc1cccc(-c2ncc(C(=O)O)c(Oc3ccn[nH]3)n2)c1 | > 10 µM | inactive | – |
| CCN(CC)c1nc(COn2c(-c3cccc(C#N)c3)nc(C(F)F)c2C(=O)O)cs1 | 2.71 µM | inactive | – |
| N#Cc1ccc(COn2c(-c3cccc(C#N)c3)nc(C3CCC3)c2C(=O)O)cc1 | 1.43 µM | inactive | – |
| N#Cc1cccc(-c2nc(C(F)F)c(C(=O)O)n2OCc2cocn2)c1 | 1.69 µM | inactive | – |
| N#Cc1cccc(-c2nc(C(F)F)c(C(=O)O)n2OCc2cncs2)c1 | 3.77 µM | – | 64.9% |

| SMILES | IC50 [2] | Activity [1] | viability at 10 µM [1] |
| --- | --- | --- | --- |
| CC1(c2nc(-c3cccc(C#N)c3)n(OCc3ccc(C#N)cc3)c2C(=O)O)CCC1 | 2.99 µM | – | 72.4% |
| N#Cc1cccc(-c2ncc(C(=O)O)c(Nc3cccnc3)n2)c1 | > 10 µM | inactive | – |
| N#Cc1cccc(-c2nc(C(F)F)c(C(=O)O)n2OCc2nccs2)c1 | 2.79 µM | inactive | – |
| [2H]C([2H])([2H])c1nc(-c2cccc(C#N)c2)n(OCc2ccc(C#N)cc2)c1C(=O)O | 3.43 µM | – | 73.1% |
| Cc1sc(N2CCOCC2)nc1COn1c(-c2cccc(C#N)c2)nc(C(F)F)c1C(=O)O | 1.36 µM | – | 64.6% |
| N#Cc1ccc(COn2c(-c3cccc(C#N)c3)nc(C3CC3(F)F)c2C(=O)O)cc1 (centres undefined) | 2.88 µM | – | 60.1% |
| N#Cc1cccc(-c2ncc(C(=O)O)c(Oc3cccnc3)n2)c1 | > 10 µM | – | 87.6% |
| N#Cc1ccc(COn2c(-c3cccc(C#N)c3)nc(-c3ccsc3)c2C(=O)O)cc1 | 1.39 µM | inactive | – |
| N#Cc1ccc(COn2c(-c3cccc(C#N)c3)nc(-c3ccncc3)c2C(=O)O)cc1 | > 10 µM | inactive | – |
| N#Cc1ccc(COn2c(-c3cccc(C#N)c3)nc(C3CCCCC3)c2C(=O)O)cc1 | 2.61 µM | inactive | – |
| N#Cc1cccc(-c2nc(C(F)F)c(C(=O)O)n2OCc2ccccn2)c1 | > 10 µM | – | 75.9% |
| N#Cc1ccc(COn2c(-c3cccc(C#N)c3)nc(C3CCCC3)c2C(=O)O)cc1 | 2.53 µM | inactive | – |
| N#Cc1cccc(-c2nc(C(F)F)c(C(=O)O)n2OCc2cnco2)c1 | 2.18 µM | inactive | – |
| N#Cc1ccc(COn2c(-c3cccc(C#N)c3)nc(-c3ccccc3)c2C(=O)O)cc1 | 3.33 µM | inactive | – |
| N#Cc1ccc(COn2c(-c3cccc(C#N)c3)nc(C3CC(F)(F)C3)c2C(=O)O)cc1 | 3.11 µM | inactive | – |
| CS(=O)(=O)Nc1cccc(Oc2nc(-c3cccc(C#N)c3)ncc2C(=O)O)c1 | 8.08 µM | – | 79.1% |

Continued, in another order:

| IC50 [2] | SMILES | Activity [1] | viability at 10 µM [1] |
| --- | --- | --- | --- |
| > 10 µM | N#Cc1ccc(COn2c(-c3cccc(C#N)c3)nc(-c3cscn3)c2C(=O)O)cc1 | inactive | – |
| > 10 µM | N#Cc1ccc(COc2nc(-c3ccc(C#N)cc3)ncc2C(=O)O)cc1 | – | 88.2% |
| > 10 µM | N#Cc1ccc(-c2ncc(C(=O)O)c(Nc3cccc(C#N)c3)n2)cc1 | – | 97.2% |
| 1.62 µM | COCc1nc(-c2cccc(C#N)c2)n(OCc2ccc(C#N)cc2)c1C(=O)O | inactive | – |
| 9.99 µM | N#Cc1ccc(Nc2nc(-c3ccc(C#N)cc3)ncc2C(=O)O)cc1 | – | 91.1% |
| 3.37 µM | N#Cc1cccc(-c2ncc(C(=O)O)c(Oc3ccccc3C#N)n2)c1 | inactive | – |
| 9.2 µM | N#Cc1ccc(COn2c(-c3cccc(C#N)c3)nc(-c3ccccn3)c2C(=O)O)cc1 | inactive | – |
| 4.09 µM | CCc1nc(-c2cccc(C#N)c2)n(OCc2ccc(C#N)cc2)c1C(=O)O | – | 70.6% |
| 3.01 µM | N#Cc1ccc(-c2ncc(C(=O)O)c(OCc3cccc(C#N)c3)n2)cc1 | – | 81.1% |
| 2.41 µM | CC1(c2nc(-c3cccc(C#N)c3)n(OCc3ccc(C#N)cc3)c2C(=O)O)CC1 | – | 88.1% |
| 3.08 µM | N#Cc1ccc(COc2nc(-c3cccc(C#N)c3)ncc2C(=O)O)cc1 | inactive | – |
| > 10 µM | N#Cc1ccc(COn2c(-c3cccc(C#N)c3)nc(-c3cccnc3)c2C(=O)O)cc1 | inactive | – |
| 2.63 µM | N#Cc1ccc(COn2c(-c3cccc(C#N)c3)nc(-c3cncs3)c2C(=O)O)cc1 | inactive | – |
| > 10 µM | N#Cc1cccc(-c2ncc(C(=O)O)c(OCc3ccccc3C#N)n2)c1 | – | 95.8% |
| 2.51 µM | N#Cc1ccc(COn2c(-c3cccc(C#N)c3)nc(C3CC3)c2C(=O)O)cc1 | inactive | – |
| 4.52 µM | N#Cc1ccc(COn2c(-c3cccc(C#N)c3)nc(-c3nccs3)c2C(=O)O)cc1 | inactive | – |
| 4.36 µM | N#Cc1ccc(-c2ncc(C(=O)O)c(Oc3cccc(C#N)c3)n2)cc1 | – | 98.9% |
| 5.02 µM | Cc1nc(-c2cccc(C#N)c2)nc(OCc2ccc(C#N)cc2)c1C(=O)O | inactive | – |
| 1.62 µM | CC(C)c1nc(-c2cccc(C#N)c2)n(OCc2ccc(C#N)cc2)c1C(=O)O | inactive | – |
| 4.62 µM | N#Cc1ccc(Oc2nc(-c3ccc(C#N)cc3)ncc2C(=O)O)cc1 | – | 91.3% |
| 4.11 µM | N#Cc1ccc(COn2c(-c3cccc(C#N)c3)nc(-c3cnccn3)c2C(=O)O)cc1 | inactive | – |
| 0.98 µM | N#Cc1ccc(COn2c(-c3cccc(C#N)c3)nc(C(F)F)c2C(=O)O)cc1 | – | 77.4% |
| 4.82 µM | N#Cc1ccc(Oc2nc(-c3cccc(C#N)c3)ncc2C(=O)O)cc1 | inactive | – |
| > 10 µM | N#Cc1ccc(-c2ncc(C(=O)O)c(OCc3ccccc3C#N)n2)cc1 | inactive | – |
| > 10 µM | N#Cc1ccc(Nc2nc(-c3cccc(C#N)c3)ncc2C(=O)O)cc1 | – | 84.9% |
| > 10 µM | N#Cc1ccc(COn2c(-c3cccc(C#N)c3)nc(-c3cccs3)c2C(=O)O)cc1 | inactive | – |
| 1.8 µM | N#Cc1ccc(COn2c(-c3cccc(C#N)c3)nc(C(F)(F)F)c2C(=O)O)cc1 | – | 75.6% |
| 2.67 µM | N#Cc1cccc(COc2nc(-c3cccc(C#N)c3)ncc2C(=O)O)c1 | – | 80.7% |
| 5.68 µM | N#Cc1ccc(-c2ncc(C(=O)O)c(Oc3ccccc3C#N)n2)cc1 | – | 96.2% |
| 9.74 µM | N#Cc1ccc(-c2ncc(C(=O)O)c(Nc3ccccc3C#N)n2)cc1 | – | 97.8% |
